Measured values: patent US20210161837A1, “METHODS FOR TREATING CANCER WITH RORGAMMA INHIBITORS” (The Regents of the University of California, priority 2016, published 2021)

Experiments:
[1] = test system: gastric cancer KATO III cells; assay: Cell viability (Cell-Titer GLO), 4 days, gastric cancer cells; type: cell-based, human
Description: Experiments were independently performed three times.
(§1) For cell viability, cells were seeded in 96-well plates at 1500-2500 cells per well (optimum density for growth, depending on the specific cell line) in a total volume of 100 μl media. Serially diluted compounds in 100 μl of media were added to the cells 12 hours later. After 4 days of incubation, Cell-Titer GLO reagents (Promega) were added and luminescence was measured on GLOMAX microplate luminometer (Promega), according to the manufacturer's instructions. All experimental points were set up as sextuplicate as biological replication and the entire experiments were repeated three times. The data are presented as percentage of viable cells with vehicle treated cells set as 100.

[2] = test system: SUM159 orthotopic xenograft tumors; assay: TNBC SUM159 orthotopic xenograft tumor growth in SCID mice; type: in vivo, mouse; conditions: 5 mg/kg, i.p., 5 times per week, 45 days
Description: Orthotopic xenograft tumor models and chemical compound treatments: Four-week-old female SCID C.B17 mice (for TNBC SUM159 cell lines) were purchased from Harlan Inc. For establishing tumors, 2×10^6 cells were suspended in total of 100 μL PBS/Matrigel (1:1) and implanted orthotopically into the 4th inguinal mammary fat pads at both sides. Animal group size of six or more was estimated to have a high statistical power, based on power calculation (www.biomath.info/pgwer/) and 20 previous studies involving the same xenograft models. When the tumor volume was approximately 50 mm^3, the mice were randomized and then treated intraperitoneally (i.p.) with 100 μl of vehicle or RORγ inhibitors F18/No. 37, 5 mg/kg; GSK805, 5 mg/kg; GNE3500, 5 mg/kg. (in a formulation of 15% Cremophor EL, Calbiochem, 82.5% PBS, and 2.5% DMSO) for five times per week. Tumor growth was monitored by calipers with volume calculated using the equation: π/6 (length×width^2). Mouse body weight during the course of the study was also monitored. At the end of the studies, mice were killed and tumors were dissected and weighed.

[3] = test system: HCC70 cells; assay: Cell viability (CellTiter-GLO), 4 days, TNBC cells; type: cell-based, human
Description: (§2) The “No.” label for each compound corresponds to the “Structure No.” in Table 2 (e.g., “No. 36”=“Structure No. 36” in Table 2). The cell viability curves were measured by CellTiter-GLO.
as §1, with “growth)” for “growth, depending on the specific cell line)”, “100. The estimated in vitro IC50 values were calculated using GraphPad Prism 6 software.” for “100.”

[4] = test system: MDA-MB468 cells; assay: Cell viability (CellTiter-GLO), 4 days, TNBC cells; type: cell-based, human
Description: as §2
as §1, with “growth)” for “growth, depending on the specific cell line)”, “100. The estimated in vitro IC50 values were calculated using GraphPad Prism 6 software.” for “100.”

[5] = test system: prostate cancer C4-2B cells; assay: Cell viability (Cell-Titer GLO), 4 days, prostate cancer cells; type: cell-based, human
Description: The “No.” label for each compound corresponds to the “Structure No.” in Table 2 (e.g., “No. 36”=“Structure No. 36” in Table 2). Experiments were independently performed three times.
as §1, with “100. The estimated in vitro IC50 values were calculated using GraphPad Prism 6 software.” for “100.”

[6] = test system: MCF-7-TamR; assay: Growth and survival of tamoxifen-resistant breast cancer cells; type: cell-based, human; conditions: MCF-7-TamR, 1 μM of 4(OH)-tamoxifen alone

For `CCS(=O)(=O)c1ccc(CC(=O)Nc2cc(Cl)c(-c3ccccc3OC(F)(F)F)c(Cl)c2)cc1` [GSK805, reference compound], the “inhibition of growth and survival” value [1] was “strongly inhibited the growth and survival” and the “orthotopic tumor growth inhibition” value [2] was “Strong tumor growth inhibition”.
`OC(c1ccc(-c2ccc(CN3CCN(Cc4ccncc4)CC3)cc2)c(F)c1)(C(F)(F)F)C(F)(F)F` [SR2211] was tested, and the “inhibition of growth and survival” value [1] was “strongly inhibited the growth and survival”.
For `O=C(CCc1ccccc1)Nc1ccc(-c2ccc(C(O)(C(F)(F)F)C(F)(F)F)cc2F)cc1` [F62, N-(2′-fluoro-4′-(1,1,1,3,3,3-hexafluoro-2-hydroxypropan-2-yl)-[1,1′-biphenyl]-4-yl)-3-phenylpropanamide], the “inhibition of growth and survival” value [3] was “strongly inhibited the growth and survival”, the “inhibition of growth and survival” value [4] was “strongly inhibited the growth and survival” and the “inhibition of growth and survival” value [5] was “strongly inhibited the growth and survival”.
With `CC(=O)N1CCN(c2ccc(CN3[C@@H](C)CC[C@H](c4ccccc4)S3(=O)=O)c(F)c2)CC1` [GNE3500] the “inhibition of growth and survival” value [1] was “strongly inhibited the growth and survival”.
For `CCCCCCC(=O)Nc1ccc(-c2ccc(C(O)(C(F)(F)F)C(F)(F)F)cc2F)cc1` [F64, N-(2′-fluoro-4′-(1,1,1,3,3,3-hexafluoro-2-hydroxypropan-2-yl)-[1,1′-biphenyl]-4-yl)heptanamide], the “inhibition of growth and survival” value [3] was “strongly inhibited the growth and survival”, the “inhibition of growth and survival” value [4] was “strongly inhibited the growth and survival” and the “inhibition of growth and survival” value [5] was “strongly inhibited the growth and survival”.
In the case of `O=C(CCC(F)(F)F)Nc1ccc(-c2ccc(C(O)(C(F)(F)F)C(F)(F)F)cc2F)cc1` [F63, 4,4,4-trifluoro-N-(2′-fluoro-4′-(1,1,1,3,3,3-hexafluoro-2-hydroxypropan-2-yl)-[1,1′-biphenyl]-4-yl)butanamide], the “inhibition of growth and survival” value [3] is reported as “strongly inhibited the growth and survival”, the “inhibition of growth and survival” value [4] is reported as “strongly inhibited the growth and survival” and the “inhibition of growth and survival” value [5] is reported as “strongly inhibited the growth and survival”.
With `CC/C(=C(\c1ccccc1)c1ccc(OCCN(C)C)cc1)c1ccccc1` [tamoxifen, reference compound] the “growth inhibitory effect, tamoxifen alone” value [6] was “did not show any inhibitory effect”.
`O=C(CCCC1CCCCC1)Nc1ccc(-c2ccc(C(O)(C(F)(F)F)C(F)(F)F)cc2F)cc1` [F65, 4-cyclohexyl-N-(2′-fluoro-4′-(1,1,1,3,3,3-hexafluoro-2-hydroxypropan-2-yl)-[1,1′-biphenyl]-4-yl)butanamide] was tested, and the “inhibition of growth and survival” value [3] was “strongly inhibited the growth and survival”, the “inhibition of growth and survival” value [4] was “strongly inhibited the growth and survival” and the “inhibition of growth and survival” value [5] was “strongly inhibited the growth and survival”.
`COC(=O)CCCC(=O)Nc1ccc(-c2ccc(C(O)(C(F)(F)F)C(F)(F)F)cc2F)cc1` [F68, Methyl-5-((2′-fluoro-4′-(1,1,1,3,3,3-hexafluoro-2-hydroxypropan-2-yl)-[1,1′-biphenyl]-4-yl)amino)-5-oxopentanoate] was tested, and the “inhibition of growth and survival” value [3] was “strongly inhibited the growth and survival”, the “inhibition of growth and survival” value [4] was “strongly inhibited the growth and survival” and the “inhibition of growth and survival” value [5] was “strongly inhibited the growth and survival”.
For `O=C(Cc1ccc([N+](=O)[O-])cc1)Nc1ccc(-c2ccc(C(O)(C(F)(F)F)C(F)(F)F)cc2F)cc1` [F17, N-(2′-fluoro-4′-(1,1,1,3,3,3-hexafluoro-2-hydroxypropan-2-yl)-[1,1′-biphenyl]-4-yl)-2-(4-nitrophenyl)acetamide], the “inhibition of growth and survival” value [3] was “strongly inhibited the growth and survival”, the “inhibition of growth and survival” value [4] was “strongly inhibited the growth and survival” and the “inhibition of growth and survival” value [5] was “strongly inhibited the growth and survival”.
